One compound from US20260130370A1, “PLANT ACTIVATOR” (IBIDEN CO., LTD., priority 2021, published 2026) can be followed below.

The subject of the assay is potherb mustard (“Mizuna”, Brassica rapa var. laciniifolia). Description: Evaluation of the Mizuna (potherb mustard) growth. The format is in vivo. The note with it: 0.05 mg/L foliar spraying (300 L/10a) 9 and 12 days after sowing, harvested 21 days after sowing. As for the experimental part:
Dilutions were prepared by adding distilled water to the above-obtained trihydroxyoctadecaenoic acid solution, ketol fatty acid solution, and culture broth containing fatty acid metabolites, so that the final concentration of each of trihydroxyoctadecaenoic acid, ketol fatty acids, and fatty acid metabolites was 0.05 mg/L, and the resulting dilutions gave treatment solutions. A 72-well cell tray was filled with culture soil (TAKII & CO., LTD, trade name “Tanemaki Baido”), and the forced sprouting seeds of potherb mustard were sown in. After budding, the potherb mustard seedlings were thinned out for two plants per cell. Light condition was set for 12 hours for light period/12 hours for dark period. Water was supplied by irrigating with an appropriate amount of tap water about once every four days. 9 and 12 days after sowing, the plants were treated with foliar spraying by spraying each of the treatment solutions (300 L/10a) to the above-ground part of plants using a sprayer. The negative control was not subjected for the spraying of the treatment solution (“no treatment area”).
21 days after sowing, the plants were harvested and the wet weight of the above-ground part of plants per plant and the leaf length were measured.

For the compound `CC/C=C\C/C=C\CC(=O)C(O)CCCCCCCC(=O)O` (centres unmarked) [ketol fatty acid, 9-hydroxy-10-oxo-12 (Z), 15 (Z)-octadecadienoic acid], the “wet weight of the above-ground part” value (average n=20, no treatment area 0.19 g/plant) was “little increase”. The leaf length result (average n=20, no treatment area 8.1 cm) is “reduced”.
